Assay results published in article PMC5423977, “Safety, pharmacokinetics, and pharmacodynamics of BMS-986142, a novel reversible BTK inhibitor, in healthy participants” (European Journal of Clinical Pharmacology, 2017).
“And” between values parts separate entries of the source, which are not always exact repeats. Identical values can stand only once.

Tests used:
[1] = Effect of BMS-986142 on single-dose plasma PK of MTX (DDI); type: in vivo, human; conditions: BMS-986142 350 mg QD, MTX 7.5 mg single dose
Experimental: Blood samples for the measurement of BMS-986142 were collected up to 168 h after dosing of BMS-986142 on day 1 for participants in SAD. In MAD, blood samples were collected up to 24 h on day 1 and up to 120 h on day 14 (the last day of treatment). Blood samples for the measurement of MTX were collected up to 48 h after dosing of MTX on days 1 and 8.
Plasma samples were analyzed for BMS-986142 levels with a validated method using liquid chromatography tandem mass spectrometry (LC-MS/MS) detection. The analyte was extracted from 50 μL of plasma using a liquid–liquid extraction method. Methyl tert-butyl ether was used as the extraction solvent. The lower limit of quantification (LLOQ) was 1.00 ng/mL in plasma. Plasma samples were analyzed for methotrexate levels using LC-MS/MS detection. Analytes were isolated from 50 μL plasma through solid phase extraction using Waters Oasis MAX, 10-mg, 96-well SPE plates. The final extract was analyzed using LC-MS/MS detection. LLOQ was 1.00 ng/mL in plasma. Detailed methodology quantitating the concentration level of BMS-986142 and MTX is provided in Online Resource 10.
Individual subject pharmacokinetic parameters for BMS-986142 and MTX were derived by a non-compartmental method using validated PK software (WinNonLin version 6.3; Pharsight Corporation, Mountain View, CA, USA). The following PK parameters for BMS-986142 and MTX were derived from plasma concentration versus time data: maximum observed plasma concentration (Cmax); minimum observed plasma concentration (Cmin); time to maximum observed plasma concentration (Tmax); area under the plasma concentration-time curve from time zero to the time of the last quantifiable concentration (AUC(0-T)), from time zero extrapolated to infinite time (AUC(inf)), and in one dosing interval (AUC(TAU)); terminal plasma half-life (T1/2); and AUC accumulation index (AI_AUC). AI_AUC was calculated to divide AUC(TAU) on day 14 by AUC(TAU) on day 1.
Statistical analyses were conducted to assess the effect of coadministration of BMS-986142 on the PK of MTX. For all treatment comparisons, a linear mixed-effect model was fitted to the log-transformed PK parameters Cmax, AUC(0-T), and AUC(inf). Point estimates and 90% CIs for differences on the log-scale were exponentiated to obtain estimates for geometric mean ratios (GMRs) and respective 90% CIs on the original scale. Sample size determination is based on consideration of the precision of the estimate of the GMRs of AUCs of MTX with and without BMS-986142. With 9 evaluable subjects, there will be an 80% probability that the 90% CI of AUC(INF) GMR will be within 89.9 to 111.2% of the point estimate. These precision estimates are based on an assumption that Cmax and AUC(INF) of MTX are log-normally distributed with intrasubject CV of 14.67 and 10.38%, respectively, as calculated from Namour et al..

[2] = system: CD69 expression on B cells; assay: Ex vivo anti-IgD-dextran induced CD69 expression on B cells in whole blood; type: cell-based, human
Experimental: To assess the functional effect of BMS-986142 on a relevant pathway in the targeted cells, whole blood was stimulated ex vivo with anti-IgD-dextran to activate signal transduction through the B cell antigen receptor. B cells, identified by CD20, were assessed for expression of CD69. Blood was incubated without addition of anti-IgD-dextran to serve as a negative control. Samples were incubated for 24 h at 37 °C, and then fixed and stained for CD20 and CD69. CD69 expression was quantified by standardized flow cytometry. Fluorescence intensity was measured and reported in units of mean equivalents of soluble fluorescein (MESF). Background CD69 level was measured from samples without the addition of anti-IgD-dextran and was subtracted from the stimulated value. The anti-IgD specific CD69 induction was used for analysis. The result for each sample was expressed as a percentage inhibition relative to the pre-dose sample.
CD69 inhibition by BMS-986142 was tabulated by treatment and time, and corresponding changes from baseline were calculated and summarized. The inhibition of B cell receptor-mediated CD69 expression by BMS-986142 was descriptively summarized by treatment and study days. An exposure-response analysis was applied to characterize the relationship between BMS-986142 concentration and CD69 inhibition using a Bayesian Emax model. […]

For `Cc1c(-c2c(F)cc(C(N)=O)c3[nH]c4c(c23)CC[C@H](C(C)(C)O)C4)cccc1-n1c(=O)c2cccc(F)c2n(C)c1=O` [BMS-986142, 6-fluoro-5-(R)-(3-(S)-(8-fluoro-1-methyl-2,4-dioxo-1,2-dihydroquinazolin-3(4H)-yl)-2-methylphenyl)-2-(S)-(2-hydroxypropan-2-yl)-2,3,4,9-tetrahydro-1H-carbazole-8-carboxamide], the “Effect on the pharmacokinetics of MTX” value [1] was “did not affect the pharmacokinetics of MTX”, the IC50 ([2]; Homo sapiens, B-cell, plasma concentration, Bayesian Emax model, SAD and MAD data, read-out: IC50, concentration to inhibit 50% of CD69 expression) was 145 nM and 0.083 µg/mL and the “Mean maximal inhibition of CD69 expression” value ([2]; dose levels greater than 100 mg) was roughly 100%.
